Source: US8952024B2, “Herbicidal pyrimidone derivatives” (E I du Pont de Nemours and Company, priority 2009, dated 2015)

Tests used:
Assay in all cases: Test D pre-/postemergence plant response
Type in all cases: in vivo
[1] = system: morningglory (pitted morningglory, Ipomoea lacunosa)
Method in brief: (§1)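 Seeds were sown in a loam–sand blend and sprayed preemergence with compound in a non-phytotoxic solvent mixture containing surfactant; plants at 2–18 cm (1- to 4-leaf stage) received the same formulation postemergence. After 14 to 21 days in a greenhouse, injury was rated visually against untreated controls (0 = no effect, 100 = complete control).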

[2] = system: Russian thistle (Salsola kali)
Method in brief: as §1

[3] = system: Surinam grass (Brachiaria decumbens)
Method in brief: as §1

[4] = system: black mustard (Brassica nigra)
Method in brief: as §1

[5] = system: spanishneedles (Bidens bipinnata)
Method in brief: as §1

[6] = system: guineagrass (Panicum maximum)
Method in brief: as §1

[7] = system: large crabgrass (Digitaria sanguinalis)
Method in brief: as §1

[8] = system: nutsedge (purple nutsedge, Cyperus rotundus)
Method in brief: as §1

[9] = system: purslane (common purslane, Portulaca oleracea)
Method in brief: as §1

[10] = system: sowthistle (common sowthistle, Sonchus oleraceous)
Method in brief: as §1

[11] = system: barnyardgrass (Echinochloa crus-galli)
Method in brief: as §1

[12] = system: signalgrass (broadleaf signalgrass, Brachiaria platyphylla)
Method in brief: as §1

[13] = system: chickweed (common chickweed, Stellaria media); conditions: Postemergence
Method in brief: as §1

[14] = system: dallisgrass (Paspalum dilatatum)
Method in brief: as §1

[15] = system: kochia (Kochia scoparia)
Method in brief: as §1

[16] = system: itchgrass (Rottboellia cochinchinensis)
Method in brief: as §1

[17] = Postemergence, 16 g ai/ha, scale 0 to 100
[18] = Postemergence, 31 g ai/ha, scale 0 to 100
[19] = Postemergence, 125 g ai/ha, scale 0 to 100 (0 no effect, 100 complete control)
[20] = Preemergence, 16 g ai/ha, scale 0 to 100, 0 no effect, 100 complete control
[21] = Preemergence, 31 g ai/ha, scale 0 to 100 (0 no effect, 100 complete control)
[22] = Preemergence, 62 g ai/ha, scale 0 to 100
[23] = Preemergence, 125 g ai/ha, scale 0 to 100
[24] = Postemergence, 62 g ai/ha, scale 0 to 100 (0 no effect, 100 complete control)
[25] = Postemergence, 31 g ai/ha, scale 0 to 100 (0 no effect, 100 complete control)

Structure (SMILES): Cc1c(F)cccc1-n1c(-c2ccccc2)ncc(C(=O)C2=C(O)CCCC2=O)c1=O [Compound 47, 3-(3-fluoro-2-methylphenyl)-5-[(2-hydroxy-6-oxo-1-cyclohexen-1-yl)carbonyl]-2-phenyl-4(3H)-pyrimidinone]
- Plant response rating, Morningglory [1, 17]: 5
- Plant response rating, Morningglory [1, 18]: 5
- Plant response rating, Morningglory [1, 19]: 50
- Plant response rating, Morningglory [1, 20]: 0
- Plant response rating, Morningglory [1, 21]: 0
- Plant response rating, Morningglory [1, 22]: 20
- Plant response rating, Morningglory [1, 23]: 65
- Plant response rating, Russian Thistle [2, 17]: 20
- Plant response rating, Russian Thistle [2, 24]: 20
- Plant response rating, Russian Thistle [2, 20]: 0
- Plant response rating, Russian Thistle [2, 23]: 100
- Plant response rating, Surinam Grass [3, 17]: 35
- Plant response rating, Surinam Grass [3, 18]: 50
- Plant response rating, Surinam Grass [3, 19]: 70
- Plant response rating, Surinam Grass [3, 24]: 60
- Plant response rating, Surinam Grass [3, 20]: 0
- Plant response rating, Black Mustard [4, 17]: 95
- Plant response rating, Black Mustard [4, 25]: 100
- Plant response rating, Black Mustard [4, 19]: 100
- Plant response rating, Black Mustard [4, 24]: 100
- Plant response rating, Black Mustard [4, 20]: 0
- Plant response rating, Black Mustard [4, 21]: 65
- Plant response rating, Black Mustard [4, 22]: 80
- Plant response rating, Black Mustard [4, 23]: 100
- Plant response rating, Spanishneedles [5, 17]: 35
- Plant response rating, Spanishneedles [5, 18]: 40
- Plant response rating, Spanishneedles [5, 19]: 70
- Plant response rating, Spanishneedles [5, 24]: 65
- Plant response rating, Spanishneedles [5, 20]: 0
- Plant response rating, Spanishneedles [5, 21]: 95
- Plant response rating, Spanishneedles [5, 23]: 95
- Plant response rating, Spanishneedles ([5]; Preemergence, rate not given, scale 0 to 100, 0 no effect, 100 complete control): 95
- Plant response rating, Guineagrass [6, 17]: 10
- Plant response rating, Guineagrass [6, 18]: 20
- Plant response rating, Guineagrass [6, 19]: 30
- Plant response rating, Guineagrass [6, 24]: 20
- Plant response rating, Guineagrass [6, 20]: 0
- Plant response rating, Guineagrass [6, 21]: 0
- Plant response rating, Guineagrass [6, 22]: 0
- Plant response rating, Guineagrass [6, 23]: 0
- Plant response rating, Crabgrass, Large [7, 17]: 20
- Plant response rating, Crabgrass, Large [7, 18]: 50
- Plant response rating, Crabgrass, Large [7, 19]: 65
- Plant response rating, Crabgrass, Large [7, 24]: 60
- Plant response rating, Crabgrass, Large [7, 20]: 0
- Plant response rating, Crabgrass, Large [7, 21]: 0
- Plant response rating, Crabgrass, Large [7, 22]: 5
- Plant response rating, Crabgrass, Large [7, 23]: 95
- Plant response rating, Nutsedge, Purple [8, 17]: 0
- Plant response rating, Nutsedge, Purple [8, 18]: 0
- Plant response rating, Nutsedge, Purple [8, 19]: 20
- Plant response rating, Nutsedge, Purple [8, 24]: 10
- Plant response rating, Nutsedge, Purple [8, 20]: 0
- Plant response rating, Nutsedge, Purple [8, 21]: 0
- Plant response rating, Nutsedge, Purple [8, 22]: 10
- Plant response rating, Nutsedge, Purple [8, 23]: 35
- Plant response rating, Purslane [9, 17]: 20
- Plant response rating, Purslane [9, 18]: 20
- Plant response rating, Purslane [9, 19]: 30
- Plant response rating, Purslane [9, 24]: 30
- Plant response rating, Purslane [9, 20]: 0
- Plant response rating, Purslane [9, 21]: 0
- Plant response rating, Purslane [9, 22]: 95
- Plant response rating, Purslane [9, 23]: 100
- Plant response rating, Sowthistle [10, 17]: 90
- Plant response rating, Sowthistle [10, 18]: 100
- Plant response rating, Sowthistle [10, 19]: 100
- Plant response rating, Sowthistle [10, 24]: 100
- Plant response rating, Sowthistle [10, 20]: 65
- Plant response rating, Sowthistle [10, 21]: 65
- Plant response rating, Sowthistle [10, 23]: 100
- Plant response rating, Barnyardgrass [11, 17]: 70
- Plant response rating, Barnyardgrass [11, 25]: 70
- Plant response rating, Barnyardgrass [11, 19]: 70
- Plant response rating, Barnyardgrass [11, 24]: 70
- Plant response rating, Barnyardgrass [11, 20]: 0
- Plant response rating, Barnyardgrass [11, 21]: 0
- Plant response rating, Barnyardgrass [11, 22]: 5
- Plant response rating, Barnyardgrass [11, 23]: 5
- Plant response rating, Signalgrass [12, 17]: 0
- Plant response rating, Signalgrass [12, 18]: 5
- Plant response rating, Signalgrass [12, 19]: 20
- Plant response rating, Signalgrass [12, 24]: 15
- Plant response rating, Signalgrass [12, 20]: 0
- Plant response rating, Signalgrass [12, 21]: 0
- Plant response rating, Signalgrass [12, 23]: 90
- Plant response rating, Chickweed ([13]; 16 g ai/ha, scale 0 to 100): 50
- Plant response rating, Chickweed ([13]; 31 g ai/ha, scale 0 to 100): 65
- Plant response rating, Chickweed ([13]; 125 g ai/ha, scale 0 to 100 (0 no effect, 100 complete control)): 65
- Plant response rating, Dallisgrass [14, 17]: 5
- Plant response rating, Dallisgrass [14, 18]: 10
- Plant response rating, Dallisgrass [14, 19]: 15
- Plant response rating, Dallisgrass [14, 24]: 15
- Plant response rating, Dallisgrass [14, 20]: 0
- Plant response rating, Dallisgrass [14, 21]: 25
- Plant response rating, Dallisgrass [14, 22]: 65
- Plant response rating, Dallisgrass [14, 23]: 75
- Plant response rating, Kochia [15, 17]: 0
- Plant response rating, Kochia [15, 18]: 10
- Plant response rating, Kochia [15, 19]: 30
- Plant response rating, Kochia [15, 24]: 20
- Plant response rating, Kochia [15, 20]: 0
- Plant response rating, Kochia [15, 21]: 50
- Plant response rating, Kochia [15, 22]: 100
- Plant response rating, Kochia [15, 23]: 100
- Plant response rating, Itchgrass [16, 17]: 0
- Plant response rating, Itchgrass [16, 18]: 5
- Plant response rating, Itchgrass [16, 19]: 10
- Plant response rating, Itchgrass [16, 24]: 5
- Plant response rating, Itchgrass [16, 20]: 0
- Plant response rating, Itchgrass [16, 21]: 0
- Plant response rating, Itchgrass [16, 22]: 0
- Plant response rating, Itchgrass [16, 23]: 0
